One assay concerns the target T1, PLK1 (Homo sapiens, UniProt P53350).
T1 construct: endogenous in cells; host or cells: HeLa LgBit (Plk1-HiBit KI): HeLa stably expressing LgBit, with a CRISPR/Cas9 knock-in of HiBit at the endogenous PLK1 locus
Kind of assay: Luciferase assay for PLK1 in HeLa LgBit (Plk1-HiBit KI) cell line. It is filed as cell-based. To be noted: 300 nM compound, luminescence after 9 hours. A digest of the protocol:
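Luminescence, followed in real time after adding compound at 300 nM and Endurazine substrate, is reported relative to DMSO-treated wells. Cells are a HeLa LgBit line with a Plk1-HiBit knock-in, synchronized by 2 mM thymidine for 24 h, released, and cultured 18 h before treatment.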
A general note: HiBiT is a short tag that completes a luciferase, so light tracks the accessible tagged protein.

The next assay concerns NCI-H526 cell line. Kind of assay: Cell viability assay for H526 cell (EZ-Cytox). The following applies: Homo sapiens, NCI-H526, 120 h; H526 cells, 5 days, 3000 nM to 0.46 nM. It is filed as cell-based. The method, then:
(1) Culture of NCI-H526 Cell Line
(2) Treatment of Compounds of the Present Invention and Method of Cell Viability Assay
After treating the compound to each well to make the total volume of 200 μL, it was cultured in a CO2 incubator (Thermo Fisher Science, Cat. No. 4111) for 5 days.
The absorbance of the completely cultured sample was measured by setting the wavelength of a plate reader (BMG Labtech, CLARIOstar Plus) to […], and was measured after shaking for 3 minutes in a plate reader before measurement.
In Table 3, Activity represents IC50 value of each Exemplary Compound treatment group to H526 cell line (A: <30 nM, B: <50 nM, C: <100 nM, D: <200 nM, E: <400 nM).

T1 sequence (P53350 whole entry): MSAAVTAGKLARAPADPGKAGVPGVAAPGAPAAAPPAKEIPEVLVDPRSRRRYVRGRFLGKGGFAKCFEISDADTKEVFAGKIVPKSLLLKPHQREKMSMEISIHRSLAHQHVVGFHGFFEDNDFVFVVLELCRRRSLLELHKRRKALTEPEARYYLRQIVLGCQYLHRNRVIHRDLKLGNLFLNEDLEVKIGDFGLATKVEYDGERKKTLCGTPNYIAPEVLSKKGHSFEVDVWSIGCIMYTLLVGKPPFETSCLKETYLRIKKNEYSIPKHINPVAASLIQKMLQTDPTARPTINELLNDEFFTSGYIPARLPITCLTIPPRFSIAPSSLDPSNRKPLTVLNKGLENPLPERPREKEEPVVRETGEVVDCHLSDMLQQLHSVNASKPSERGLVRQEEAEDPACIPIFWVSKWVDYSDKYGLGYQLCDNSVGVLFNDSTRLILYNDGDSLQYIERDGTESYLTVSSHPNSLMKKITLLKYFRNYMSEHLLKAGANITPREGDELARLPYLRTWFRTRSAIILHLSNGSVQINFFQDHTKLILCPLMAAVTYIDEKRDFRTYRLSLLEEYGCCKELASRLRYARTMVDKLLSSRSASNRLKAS

As to `COc1cc(C(=O)N2CCC(CCN3CCN(c4cccc5c4C(=O)N(C4CCC(=O)NC4=O)C5=O)CC3)CC2)ccc1Nc1ncc2c(n1)N(C1CCCC1)CC(F)(F)C(=O)N2C` (stereo not shown) [Compound 94, 4-(4-(2-(1-(4-((9-cyclopentyl-7,7-difluoro-5-methyl-6-oxo-6,7,8,9-tetrahydro-5H-pyrimido[4,5-b][1,4]diazepin-2-yl)amino)-3-methoxybenzoyl)piperidin-4-yl)ethyl)piperazin-1-yl)-2-(2,6-dioxopiperidin-3-yl)isoindoline-1,3-dione], at PLK1, the “Activity: ratio of the luminescense value of each Exemplary Compound treatment group to DMSO treatment group” value (from here on “Activity: ratio”) was “++ (++<0.6)”. In the assay with NCI-H526 cell line, the IC50 (in general, the concentration that inhibits the measured activity by half) was less than 0.4 µM.
On to `COc1cc(C(=O)N2CCC(CN3CCN(c4ccc5c(c4)C(=O)N(C4CCC(=O)NC4=O)C5=O)CC3)CC2)ccc1Nc1ncc2c(n1)N(C1CCCC1)CC(F)(F)C(=O)N2C` (stereo not shown) [Compound 97, 5-(4-((1-(4-((9-cyclopentyl-7,7-difluoro-5-methyl-6-oxo-6,7,8,9-tetrahydro-5H-pyrimido[4,5-b][1,4]diazepin-2-yl)amino)-3-methoxybenzoyl)piperidin-4-yl)methyl)piperazin-1-yl)-2-(2,6-dioxopiperidin-3-yl)isoindoline-1,3-dione], for which, on PLK1, the “Activity: ratio” value is “++ (++<0.6)”. This compound yielded an IC50 in the assay with NCI-H526 cell line of less than 0.4 µM.
The matching figures for `COc1cc(C(=O)N2CCC(CCCN3CCN(c4ccc5c(c4)C(=O)N(C4CCC(=O)NC4=O)C5=O)CC3)CC2)ccc1Nc1ncc2c(n1)N(C1CCCC1)CC(F)(F)C(=O)N2C` (stereo not shown) [Compound 99, 5-(4-(3-(1-(4-((9-cyclopentyl-7,7-difluoro-5-methyl-6-oxo-6,7,8,9-tetrahydro-5H-pyrimido[4,5-b][1,4]diazepin-2-yl)amino)-3-methoxybenzoyl)piperidin-4-yl)propyl)piperazin-1-yl)-2-(2,6-dioxopiperidin-3-yl)isoindoline-1,3-dione]: “++ (++<0.6)” and less than 0.4 µM.
For `COc1cc(N2CCC(CN3CCN(c4cccc5c4C(=O)N(C4CCC(=O)NC4=O)C5=O)CC3)CC2)c(F)cc1Nc1ncc2c(n1)N(C1CCCC1)CC(F)(F)C(=O)N2C` (stereo not shown) [Compound 103, 4-(4-((1-(4-((9-cyclopentyl-7,7-difluoro-5-methyl-6-oxo-6,7,8,9-tetrahydro-5H-pyrimido[4,5-b][1,4]diazepin-2-yl)amino)-2-fluoro-5-methoxyphenyl)piperidin-4-yl)methyl)piperazin-1-yl)-2-(2,6-dioxopiperidin-3-yl)isoindoline-1,3-dione], at PLK1, the “Activity: ratio” value is on record as “++ (++<0.6)”. In addition, the IC50 in the assay on NCI-H526 cell line was less than 0.2 µM.
Consider `COc1cc(C(=O)NC2CCCN(C(=O)CN3CCN(c4cccc5c4C(=O)N(C4CCC(=O)NC4=O)C5=O)CC3)C2)ccc1Nc1ncc2c(n1)N(C1CCCC1)CC(F)(F)C(=O)N2C` (stereo not shown) [Compound 122, 4-((9-cyclopentyl-7,7-difluoro-5-methyl-6-oxo-6,7,8,9-tetrahydro-5H-pyrimido[4,5-b][1,4]diazepin-2-yl)amino)-N-(1-(2-(4-(2-(2,6-dioxopiperidin-3-yl)-1,3-dioxoisoindolin-4-yl)piperazin-1-yl)acetyl)piperidin-3-yl)-3-methoxybenzamide], for which, at PLK1, the “Activity: ratio” value is reported as “+++ (+++: <0.3)”. The same compound displayed an IC50 in the assay with NCI-H526 cell line of less than 0.03 µM.
With `COc1cc(C(=O)NC2CCN(C(=O)CN3CCN(c4ccc5c(c4)C(=O)N(C4CCC(=O)NC4=O)C5=O)CC3)CC2)ccc1Nc1ncc2c(n1)N(C1CCCC1)CC(F)(F)C(=O)N2C` (stereo not shown) [Compound 127, 4-((9-cyclopentyl-7,7-difluoro-5-methyl-6-oxo-6,7,8,9-tetrahydro-5H-pyrimido[4,5-b][1,4]diazepin-2-yl)amino)-N-(1-(2-(4-(2-(2,6-dioxopiperidin-3-yl)-1,3-dioxoisoindolin-5-yl)piperazin-1-yl)acetyl)piperidin-4-yl)-3-methoxybenzamide], the “Activity: ratio” value at PLK1 is given as “++ (++<0.6)”. In the assay with NCI-H526 cell line, this compound showed an IC50 of less than 0.1 µM.
The corresponding values for `COc1cc(C(=O)NC2CCN(CC3CN(c4ccc5c(c4)C(=O)N(C4CCC(=O)NC4=O)C5=O)C3)CC2)ccc1Nc1ncc2c(n1)N(C1CCCC1)CC(F)(F)C(=O)N2C` (stereo not shown) [Compound 134, 4-((9-cyclopentyl-7,7-difluoro-5-methyl-6-oxo-6,7,8,9-tetrahydro-5H-pyrimido[4,5-b][1,4]diazepin-2-yl)amino)-N-(1-((1-(2-(2,6-dioxopiperidin-3-yl)-1,3-dioxoisoindolin-5-yl)azetidin-3-yl)methyl)piperidin-4-yl)-3-methoxybenzamide] are “+++ (+++: <0.3)” and less than 0.03 µM.
With `COc1cc(C(=O)NC2CCN(CC3CN(c4cccc5c4C(=O)N(C4CCC(=O)NC4=O)C5=O)C3)CC2)ccc1Nc1ncc2c(n1)N(C1CCCC1)CC(F)(F)C(=O)N2C` (stereo not shown) [Compound 135, 4-((9-cyclopentyl-7,7-difluoro-5-methyl-6-oxo-6,7,8,9-tetrahydro-5H-pyrimido[4,5-b][1,4]diazepin-2-yl)amino)-N-(1-((1-(2-(2,6-dioxopiperidin-3-yl)-1,3-dioxoisoindolin-4-yl)azetidin-3-yl)methyl)piperidin-4-yl)-3-methoxybenzamide], the “Activity: ratio” value at PLK1 was “+++ (+++: <0.3)”. For the same compound, in the assay with NCI-H526 cell line, the IC50 is less than 0.05 µM.
The matching figures for `COc1cc(C(=O)NC2CCCN(C(=O)N3CCN(c4cccc5c4C(=O)N(C4CCC(=O)NC4=O)C5=O)CC3)C2)ccc1Nc1ncc2c(n1)N(C1CCCC1)CC(F)(F)C(=O)N2C` (stereo not shown) [Compound 145, 4-((9-cyclopentyl-7,7-difluoro-5-methyl-6-oxo-6,7,8,9-tetrahydro-5H-pyrimido[4,5-b][1,4]diazepin-2-yl)amino)-N-(1-(4-(2-(2,6-dioxopiperidin-3-yl)-1,3-dioxoisoindolin-4-yl)piperazine-1-carbonyl)piperidin-3-yl)-3-methoxybenzamide]: “+++ (+++: <0.3)” and less than 0.05 µM.
The corresponding values for `COc1cc(C(=O)N[C@@H]2CCCN(C(=O)CN3CCN(c4cccc5c4C(=O)N(C4CCC(=O)NC4=O)C5=O)CC3)C2)ccc1Nc1ncc2c(n1)N(C1CCCC1)CC(F)(F)C(=O)N2C` (stereo partly drawn) [Compound 146, 4-((9-cyclopentyl-7,7-difluoro-5-methyl-6-oxo-6,7,8,9-tetrahydro-5H-pyrimido[4,5-b][1,4]diazepin-2-yl)amino)-N-((3R)-1-(2-(4-(2-(2,6-dioxopiperidin-3-yl)-1,3-dioxoisoindolin-4-yl)piperazin-1-yl)acetyl)piperidin-3-yl)-3-methoxybenzamide] are “+++ (+++: <0.3)” and less than 0.05 µM.
Consider `COc1cc(C(=O)N[C@H]2CCCN(C(=O)CN3CCN(c4cccc5c4C(=O)N(C4CCC(=O)NC4=O)C5=O)CC3)C2)ccc1Nc1ncc2c(n1)N(C1CCCC1)CC(F)(F)C(=O)N2C` (stereo partly drawn) [Compound 147, 4-((9-cyclopentyl-7,7-difluoro-5-methyl-6-oxo-6,7,8,9-tetrahydro-5H-pyrimido[4,5-b][1,4]diazepin-2-yl)amino)-N-((3S)-1-(2-(4-(2-(2,6-dioxopiperidin-3-yl)-1,3-dioxoisoindolin-4-yl)piperazin-1-yl)acetyl)piperidin-3-yl)-3-methoxybenzamide], for which, at PLK1, the “Activity: ratio” value is listed as “+++ (+++: <0.3)”. The compound also showed an IC50 in the assay on NCI-H526 cell line of less than 0.05 µM.

Source of the values: patent US20250114460A1, “NOVEL PLK1 DEGRADATION INDUCING COMPOUND” (UPPTHERA, INC., priority 2021, published 2025).
